Reference: patent US20100298141A1, “SUBSTITUTED PYRIDINE N-OXIDE HERBICIDES” (E. I. DU PONT DE NEMOURS AND COMPANY, priority 2007, published 2010)

Legend:
barnyardgrass [1] = experiment: Test A pre-/postemergence greenhouse test; assay type: in vivo, Echinochloa crus-galli; conditions: for Plant response rating, Barnyardgrass: 0 to 100 scale where 0 is no effect and 100 is complete control; for Barnyardgrass plant response rating: 0 to 100 scale
Method in brief: (§1)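 Untreated controls served as the reference for visual injury ratings taken about ten days after spraying. The non-phytotoxic solvent/surfactant formulation was applied preemergence to seeded loam and sand and postemergence to plants two to ten cm high.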

crabgrass = experiment: Test A pre-/postemergence greenhouse test; assay type: in vivo, Digitaria sanguinalis; conditions: for Plant response rating, Crabgrass, Large: 0 to 100 scale where 0 is no effect and 100 is complete control; for Crabgrass, Large plant response rating: 0 to 100 scale
Method in brief: as §1

giant foxtail = experiment: Test A pre-/postemergence greenhouse test; assay type: in vivo, Setaria faberi; conditions: for Plant response rating, Foxtail, Giant: 0 to 100 scale where 0 is no effect and 100 is complete control; for Foxtail, Giant plant response rating: 0 to 100 scale
Method in brief: as §1

morningglory = experiment: Test A pre-/postemergence greenhouse test; assay type: in vivo, Ipomoea spp.; conditions: for Plant response rating, Morningglory: 0 to 100 scale where 0 is no effect and 100 is complete control; for Morningglory plant response rating: 0 to 100 scale
Method in brief: as §1

redroot pigweed = experiment: Test A pre-/postemergence greenhouse test; assay type: in vivo, Amaranthus retroflexus; conditions: for Plant response rating, Pigweed: 0 to 100 scale where 0 is no effect and 100 is complete control; for Pigweed plant response rating: 0 to 100 scale
Method in brief: as §1

velvetleaf = experiment: Test A pre-/postemergence greenhouse test; assay type: in vivo, Abutilon theophrasti; conditions: for Plant response rating, Velvetleaf: 0 to 100 scale where 0 is no effect and 100 is complete control; for Velvetleaf plant response rating: 0 to 100 scale
Method in brief: as §1

wheat = experiment: Test A pre-/postemergence greenhouse test; assay type: in vivo, Triticum aestivum; conditions: for Plant response rating, Wheat: 0 to 100 scale where 0 is no effect and 100 is complete control; for Wheat plant response rating: 0 to 100 scale
Method in brief: as §1

corn = experiment: Test A pre-/postemergence greenhouse test; assay type: in vivo, Zea mays; conditions: for Plant response rating, Corn: 0 to 100 scale where 0 is no effect and 100 is complete control; for Corn plant response rating: 0 to 100 scale
Method in brief: as §1

rice = experiment: Test C flooded paddy test; assay type: in vivo, Oryza sativa; conditions: Flood
Method in brief: (§2)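 Test compounds are applied straight into paddy water held 3 cm above the soil surface, with that flood maintained for the whole test. After 13 to 15 days in the greenhouse, each species is scored visually relative to controls.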

umbrella sedge = experiment: Test C flooded paddy test; assay type: in vivo, Cyperus difformis; conditions: Flood
Method in brief: as §2

duck salad = experiment: Test C flooded paddy test; assay type: in vivo, Heteranthera limosa; conditions: Flood
Method in brief: as §2

barnyardgrass [2] = experiment: Test C flooded paddy test; assay type: in vivo, Echinochloa crus-galli; conditions: Flood
Method in brief: as §2

[3] = Postemergence, 500 g ai/ha, 0 is no effect, 100 is complete control
[4] = Preemergence, 125 g ai/ha, 0 no effect, 100 complete control
[5] = Preemergence, 500 g ai/ha, 0 no effect, 100 complete control
[6] = 62 g ai/ha, scale 0 to 100 (0 no effect, 100 complete control)
[7] = 250 g ai/ha, scale 0 to 100, 0 no effect, 100 complete control, 13 to 15 days
[8] = 31 g ai/ha, scale 0 to 100 (0 no effect, 100 complete control)
[9] = 62 g ai/ha, scale 0 to 100, 0 no effect, 100 complete control, 13 to 15 days
[10] = 125 g ai/ha, scale 0 to 100, 0 no effect, 100 complete control, 13 to 15 days

## Cn1nc(C(F)(F)F)c(CS(=O)(=O)c2ccc(Cl)c[n+]2[O-])c1OCC(F)F [Compound 93]
Barnyardgrass [1]; Postemergence, 125 g ai/ha
  Plant response rating, Barnyardgrass: 70
Barnyardgrass [1]; [3]
  Barnyardgrass plant response rating: 80
Barnyardgrass [1]; [4]
  Barnyardgrass plant response rating: 60
Barnyardgrass [1]; Preemergence, 500 g ai/ha
  Plant response rating, Barnyardgrass: 90
crabgrass; Postemergence, 125 g ai/ha
  Plant response rating, Crabgrass, Large: 50
crabgrass; [3]
  Crabgrass, Large plant response rating: 80
crabgrass; [4]
  Crabgrass, Large plant response rating: 60
crabgrass; Preemergence, 500 g ai/ha
  Plant response rating, Crabgrass, Large: 90
Giant foxtail; Postemergence, 125 g ai/ha
  Plant response rating, Foxtail, Giant: 60
Giant foxtail; [3]
  Foxtail, Giant plant response rating: 80
Giant foxtail; [4]
  Foxtail, Giant plant response rating: 60
Giant foxtail; Preemergence, 500 g ai/ha
  Plant response rating, Foxtail, Giant: 90
morningglory; Postemergence, 125 g ai/ha
  Plant response rating, Morningglory: 30
morningglory; [3]
  Morningglory plant response rating: 40
morningglory; [4]
  Morningglory plant response rating: 0
morningglory; Preemergence, 500 g ai/ha
  Plant response rating, Morningglory: 0
Redroot pigweed; Postemergence, 125 g ai/ha
  Plant response rating, Pigweed: 60
Redroot pigweed; [3]
  Pigweed plant response rating: 70
Redroot pigweed; [4]
  Pigweed plant response rating: 70
Redroot pigweed; Preemergence, 500 g ai/ha
  Plant response rating, Pigweed: 100
velvetleaf; Postemergence, 125 g ai/ha
  Plant response rating, Velvetleaf: 0
velvetleaf; [3]
  Velvetleaf plant response rating: 50
velvetleaf; [4]
  Velvetleaf plant response rating: 0
velvetleaf; [5]
  Velvetleaf plant response rating: 40
wheat; Postemergence, 125 g ai/ha
  Plant response rating, Wheat: 20
wheat; [3]
  Wheat plant response rating: 40
wheat; [4]
  Wheat plant response rating: 30
wheat; [5]
  Wheat plant response rating: 30
corn; Postemergence, 125 g ai/ha
  Plant response rating, Corn: 30
corn; [3]
  Corn plant response rating: 30
corn; [4]
  Corn plant response rating: 0
corn; Preemergence, 500 g ai/ha
  Plant response rating, Corn: 0
rice; [6]
  Plant response rating, Rice: 0
rice; [7]
  Plant response rating, Rice: 30
Umbrella sedge; [6]
  Plant response rating, Sedge, Umbrella: 0
Umbrella sedge; [7]
  Plant response rating, Sedge, Umbrella: 40
Duck salad; [6]
  Plant response rating, Ducksalad: 0
Duck salad; [7]
  Plant response rating, Ducksalad: 50
Barnyardgrass [2]; [6]
  Plant response rating, Barnyardgrass: 0
Barnyardgrass [2]; [7]
  Plant response rating, Barnyardgrass: 20

## Cn1nc(C(F)(F)F)c(C[S+]([O-])c2c(F)ccc[n+]2[O-])c1Cl (centres unmarked) [Compound 52]
Barnyardgrass [1]; Postemergence, 125 g ai/ha
  Plant response rating, Barnyardgrass: 40
Barnyardgrass [1]; [3]
  Barnyardgrass plant response rating: 70
Barnyardgrass [1]; [4]
  Barnyardgrass plant response rating: 10
Barnyardgrass [1]; Preemergence, 500 g ai/ha
  Plant response rating, Barnyardgrass: 80
crabgrass; Postemergence, 125 g ai/ha
  Plant response rating, Crabgrass, Large: 30
crabgrass; [3]
  Crabgrass, Large plant response rating: 40
crabgrass; [4]
  Crabgrass, Large plant response rating: 0
crabgrass; Preemergence, 500 g ai/ha
  Plant response rating, Crabgrass, Large: 40
Giant foxtail; Postemergence, 125 g ai/ha
  Plant response rating, Foxtail, Giant: 40
Giant foxtail; [3]
  Foxtail, Giant plant response rating: 60
Giant foxtail; [4]
  Foxtail, Giant plant response rating: 30
Giant foxtail; Preemergence, 500 g ai/ha
  Plant response rating, Foxtail, Giant: 90
morningglory; Postemergence, 125 g ai/ha
  Plant response rating, Morningglory: 0
morningglory; [3]
  Morningglory plant response rating: 20
morningglory; [4]
  Morningglory plant response rating: 0
morningglory; Preemergence, 500 g ai/ha
  Plant response rating, Morningglory: 40
Redroot pigweed; Postemergence, 125 g ai/ha
  Plant response rating, Pigweed: 40
Redroot pigweed; [3]
  Pigweed plant response rating: 70
Redroot pigweed; Preemergence, 500 g ai/ha
  Plant response rating, Pigweed: 100
velvetleaf; Postemergence, 125 g ai/ha
  Plant response rating, Velvetleaf: 50
velvetleaf; [3]
  Velvetleaf plant response rating: 60
velvetleaf; [4]
  Velvetleaf plant response rating: 0
velvetleaf; Preemergence, 500 g ai/ha
  Plant response rating, Velvetleaf: 0
wheat; Postemergence, 125 g ai/ha
  Plant response rating, Wheat: 0
wheat; [3]
  Wheat plant response rating: 50
wheat; [4]
  Wheat plant response rating: 0
wheat; Preemergence, 500 g ai/ha
  Plant response rating, Wheat: 0
corn; Postemergence, 125 g ai/ha
  Plant response rating, Corn: 0
corn; [3]
  Corn plant response rating: 30
corn; [4]
  Corn plant response rating: 0
corn; Preemergence, 500 g ai/ha
  Plant response rating, Corn: 0
rice; [8]
  Plant response rating, Rice: 0
rice; [9]
  Plant response rating, Rice: 0
rice; [10]
  Plant response rating, Rice: 0
rice; [7]
  Plant response rating, Rice: 0
Umbrella sedge; [8]
  Plant response rating, Sedge, Umbrella: 0
Umbrella sedge; [10]
  Plant response rating, Sedge, Umbrella: 40
Umbrella sedge; [7]
  Plant response rating, Sedge, Umbrella: 85
Duck salad; [8]
  Plant response rating, Ducksalad: 0
Duck salad; [9]
  Plant response rating, Ducksalad: 0
Duck salad; [10]
  Plant response rating, Ducksalad: 40
Duck salad; [7]
  Plant response rating, Ducksalad: 60
Barnyardgrass [2]; [8]
  Plant response rating, Barnyardgrass: 0
Barnyardgrass [2]; [9]
  Plant response rating, Barnyardgrass: 0
Barnyardgrass [2]; [10]
  Plant response rating, Barnyardgrass: 0
Barnyardgrass [2]; [7]
  Plant response rating, Barnyardgrass: 0
